Experimental data reported in patent US10856562B2, “Flavor composition and edible compositions containing same” (MARS, INCORPORATED, priority 2013, dated 2020).
Entries after “also recorded” stand apart in the source; their conditions may differ. Square brackets hold non-standard residues; d marks the D form. Ends that are not written are not given here. pGlu = O=C1CC[C@@H](C(=O)O)N1

How the values were obtained:
Type in all cases: in vivo, human
[1] = tested on: panelists; test: Descriptive profile (Spectrum method) of peptide in 0.2% NaCl solution, in-mouth; settings: for Astringent, in-mouth perception / Bitter, in-mouth perception / Flinty/Mineral, in-mouth perception / Metallic, in-mouth perception / Numbing, in-mouth perception / Salt, in-mouth perception (mean salt perception in-mouth) / Sour, in-mouth perception / Sweet, in-mouth perception: mean score, 15-point scale
Method: Descriptive Profiles (Flavor and Chemical Feeling Factors) of five use levels of a pGlu-Val-Leu flavor composition were determined using the Spectrum™ method. The five use levels were as follows: 0.1 ppb, 0.5 ppb, 1.0 ppb, 10.0 ppb and 40.0 ppb.
Data was collected for the flavor and chemical feeling factors of the product in-mouth for each of the five use levels according to the following protocol. One replication was collected for the flavor and chemical feeling factors of the product in-mouth. 6-9 panelists evaluated per session.
2. Each panelist tasted a test sample (0.1 ppb, 0.5 ppb, 1.0 ppb, 10.0 ppb or 40.0 ppb all in 0.2% NaCl solution). Only one sample was tasted per session.
Descriptive attributes (e.g., taste, flavor and chemical feeling factors) of six use levels of pGlu-Val-Leu (SE-13), pGlu-Val (SE-14) and pGlu-Val-Val (SE-17) flavor composition peptides were determined. The six use levels were as follows: 0.1 ppb, 0.5 ppb, 1.0 ppb, 10.0 ppb, 40.0 ppb and 50.0 ppb.
Data was collected for the attributes of the product in-mouth for the use levels according to the following protocol: • The samples were analyzed for flavor and aftertaste by six-nine members of a panel, trained and experienced in appearance, flavor and texture evaluation using the Spectrum™ method. Samples in solution were evaluated across multiple panel sessions. • The strength of each attribute was rated on a 15-point scale, where 0=none and 15=very strong. • This scale incorporates the ability to use tenths of a point and therefore has the potential of 150 scale differentiations. • The scale may be expanded beyond 15 points to include extreme ratings if necessary.
(§1) Attribute Perception Protocol • The panelists evaluated each sample using the following procedure • Descriptive Profiles (flavor and chemical feeling factors) of 5 levels of salt enhancing solutions • Individual data was collected for the flavor and chemical feeling factors of the product in-mouth • Increased Salt Perception Protocol • Each panelist tasted salt 5 reference (0.35% salt solution)—to ground themselves on salt intensity of 5.0. • Each panelist tasted the test sample (0.1 ppb, 0.5 ppb, 1.0 ppb, 10.0 ppb or 40.0/50.0 ppb all in 0.2% NaCl solution: only one per session) • Each panelist then re-tasted the salt 5 reference and rated it for salt intensity as well as any other basic taste, chemical feeling factor, or aromatic perceived. This captured any increased salt perception indicated by the test sample as well as any other perceptions present. • Return to Baseline Protocol • After evaluating the sample for salt & other perceptions, panelists re-tasted the salt 5 reference at 1 minute intervals until their perception of the salt 5 saltiness intensity had returned to 5.0. Each panelist recorded their salt intensity at each interval and took qualitative notes on other perceptions seen in aftertaste. Sample Preparation
The 0.1, 0.5, 1.0 10, 40, and 50 ppb test samples of the flavor composition peptides were prepared in water as described in table 4.
The panelists evaluated each sample for the attributes described in table 5.

[2] = tested on: panelists; test: Return to baseline protocol: salt reference re-tasted at 1 minute intervals
Method: as §1, with “After evaluating the sample for salt and other perceptions (step 3 above), each panelist re-tasted the salt reference (5.0 intensity) at 1 minute intervals until their perception of the saltiness intensity of the reference returned to 5.0. Each panelist recorded salt intensity at each interval and took qualitative notes on other perceptions seen in aftertaste. Attribute” for “Attribute”

[3] = tested on: panel of trained tasters; test: Saltiness of sodium-reduced pasta sauce with peptides, panel of trained tasters; settings: test 405 mg Na, UE-30 1 ppb
Method: Food product compositions were prepared by admixing flavor composition peptide(s) of the present application with food compositions, wherein the level of sodium (NaCl) in the food product compositions was reduced. The level of sodium was reduced by 25%, 50% or 75% compared to food products compositions that were not admixed with flavor composition peptides. The food product compositions comprising the flavor composition peptides were tasted by a panel of trained tasters and the level of saltiness was compared to the control food products.
The peptides pGlu-Val-Leu (identified as “SE-13”), pGlu-Val-Cys (identified as “UE-30”) and pGlu-Val-Val (identified as “SE-17”) were tested in Pasta Sauce. The control pasta sauce comprised 540 mg sodium (NaCl) in a 125 g serving.

[pGlu]-Val-Val [SE-17]
Astringent, in-mouth perception ([1]; 0.1 ppb in 0.2% NaCl): 0.0
Bitter, in-mouth perception ([1]; 0.1 ppb in 0.2% NaCl): 0.0
Flinty/Mineral, in-mouth perception ([1]; 0.1 ppb in 0.2% NaCl): 0.7
Metallic, in-mouth perception ([1]; 0.1 ppb in 0.2% NaCl): 0.0
Numbing, in-mouth perception ([1]; 0.1 ppb in 0.2% NaCl): 0.0
Salt, in-mouth perception (mean salt perception in-mouth) ([1]; 0.1 ppb in 0.2% NaCl): 3.1
Sour, in-mouth perception ([1]; 0.1 ppb in 0.2% NaCl): 0.0
Sweet, in-mouth perception ([1]; 0.1 ppb in 0.2% NaCl): 0.0
Level of the aromatics, basic tastes and chemical feeling factors in-mouth with increasing concentration ([1]; 0.1 to 40.0/50.0 ppb): does not increase
Salt perception in-mouth as the concentration increases ([1]; 0.1 to 40.0/50.0 ppb in 0.2% NaCl): does not increase notably; also recorded: Does not show a notable increase; also recorded: did not necessarily increase
Astringent, in-mouth perception ([1]; 0.5 ppb in 0.2% NaCl): 0.0
Bitter, in-mouth perception ([1]; 0.5 ppb in 0.2% NaCl): 0.0
Flinty/Mineral, in-mouth perception ([1]; 0.5 ppb in 0.2% NaCl): 0.8
Metallic, in-mouth perception ([1]; 0.5 ppb in 0.2% NaCl): 0.3
Numbing, in-mouth perception ([1]; 0.5 ppb in 0.2% NaCl): 0.0
Salt, in-mouth perception (mean salt perception in-mouth) ([1]; 0.5 ppb in 0.2% NaCl): 4.0
Sour, in-mouth perception ([1]; 0.5 ppb in 0.2% NaCl): 0.0
Sweet, in-mouth perception ([1]; 0.5 ppb in 0.2% NaCl): 0.0
Astringent, in-mouth perception ([1]; 1.0 ppb in 0.2% NaCl): 0.0
Bitter, in-mouth perception ([1]; 1.0 ppb in 0.2% NaCl): 0.0
Flinty/Mineral, in-mouth perception ([1]; 1.0 ppb in 0.2% NaCl): 0.5
Metallic, in-mouth perception ([1]; 1.0 ppb in 0.2% NaCl): 0.0
Numbing, in-mouth perception ([1]; 1.0 ppb in 0.2% NaCl): 0.0
Salt, in-mouth perception (mean salt perception in-mouth) ([1]; 1.0 ppb in 0.2% NaCl): 2.8
Sour, in-mouth perception ([1]; 1.0 ppb in 0.2% NaCl): 0.0
Sweet, in-mouth perception ([1]; 1.0 ppb in 0.2% NaCl): 0.0
Astringent, in-mouth perception ([1]; 10.0 ppb in 0.2% NaCl): 0.0
Bitter, in-mouth perception ([1]; 10.0 ppb in 0.2% NaCl): 0.0
Flinty/Mineral, in-mouth perception ([1]; 10.0 ppb in 0.2% NaCl): 0.5
Metallic, in-mouth perception ([1]; 10.0 ppb in 0.2% NaCl): 0.0
Numbing, in-mouth perception ([1]; 10.0 ppb in 0.2% NaCl): 0.0
Salt, in-mouth perception (mean salt perception in-mouth) ([1]; 10.0 ppb in 0.2% NaCl): 3.6
Sour, in-mouth perception ([1]; 10.0 ppb in 0.2% NaCl): 0.0
Sweet, in-mouth perception ([1]; 10.0 ppb in 0.2% NaCl): 0.0
Astringent, in-mouth perception ([1]; 50.0 ppb in 0.2% NaCl): 0.0
Bitter, in-mouth perception ([1]; 50.0 ppb in 0.2% NaCl): 0.0
Flinty/Mineral, in-mouth perception ([1]; 50.0 ppb in 0.2% NaCl): 0.5
Metallic, in-mouth perception ([1]; 50.0 ppb in 0.2% NaCl): 0.0
Numbing, in-mouth perception ([1]; 50.0 ppb in 0.2% NaCl): 0.0
Salt, in-mouth perception (mean salt perception in-mouth) ([1]; 50.0 ppb in 0.2% NaCl): 3.9
Sour, in-mouth perception ([1]; 50.0 ppb in 0.2% NaCl): 0.0
Sweet, in-mouth perception ([1]; 50.0 ppb in 0.2% NaCl): 0.0
Umami like swelling of lips and tongue, in-mouth ([1]; all levels): Some panelists also experience Umami like swelling of lips and tongue
Umami like feeling factor of lip and tongue swelling ([1]; both in-mouth and after expectoration): Shows umami like feeling factor of lip and tongue swelling
Levels of salt perception in-mouth, comparison of SE-13, SE-14 and SE-17 ([1]; overall): highest levels
Mean time needed to return to baseline ([2]; 0.1 ppb in 0.2% NaCl): 3.4 min
Mean time needed to return to baseline (min.) ([2]; 0.1 ppb in 0.2% NaCl): 3.4 min
Time needed to return to baseline as the concentration increases ([2]; 0.1 to 40.0/50.0 ppb): No definitive trends are seen; also recorded: no definitive trend
Mean time needed to return to baseline ([2]; 0.5 ppb in 0.2% NaCl): 5.6 min
Mean time needed to return to baseline (min.) ([2]; 0.5 ppb in 0.2% NaCl): 5.6 min
Mean time needed to return to baseline ([2]; 1.0 ppb in 0.2% NaCl): 5.0 min
Mean time needed to return to baseline (min.) ([2]; 1.0 ppb in 0.2% NaCl): 5.0 min
Mean time needed to return to baseline ([2]; 10.0 ppb in 0.2% NaCl): 5.0 min
Mean time needed to return to baseline (min.) ([2]; 10.0 ppb in 0.2% NaCl): 5.0 min
Mean time needed to return to baseline ([2]; 50.0 ppb in 0.2% NaCl): 4.1 min
Mean time needed to return to baseline (min.) ([2]; 50.0 ppb in 0.2% NaCl): 4.1 min
Saltiness compared to control ([3]; control 540 mg, SE-13 or SE-17 10 ppb, n=4): significantly less salty than
Salt enhancement ([3]; SE-17 10 ppb): UE-30 did not provide a big
